Measurements published in ChEMBL document CHEMBL1201862, “PubChem BioAssay data set” (2004).
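Cultured in 96-well plates, cells were exposed to test compound for 48 hours across five concentrations. GI50 is the concentration that inhibits growth by half.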 Active and inactive are the calls of the source. Rule as the data show it: active = GI50 up to about 1.1 µM and inactive = higher.

Columns and labels:
Assay in all cases: DTP human tumour cell line panel, 48 h
A498 = system: A498
HL-60 = system: HL-60
HOP-62 = system: HOP-62
HT-29 = system: HT-29
IGROV-1 = system: IGROV-1
K562 = system: K562
Malme-3M = system: Malme-3M
NCI-H226 = system: NCI-H226
NCI-H522 = system: NCI-H522
NCI/ADR-RES = system: NCI/ADR-RES
OVCAR-8 = system: OVCAR-8
RPMI-8226 = system: RPMI-8226
SF-539 = system: SF-539
SK-MEL-2 = system: SK-MEL-2
SK-MEL-5 = system: SK-MEL-5
SN12C = system: SN12C
U-251 = system: U-251
UACC-257 = system: UACC-257
MDA-N = system: MDA-N
SK-OV-3 = system: SK-OV-3

Measured: GI50

O=[N+]([O-])c1cccc([N+](=O)[O-])c1Cl
inactive: A498 21.8 µM | HL-60 2.82 µM | HOP-62 23.5 µM | HT-29 19.9 µM | IGROV-1 15.9 µM | K562 5.71 µM | Malme-3M 17.4 µM | NCI-H226 27 µM | NCI-H522 12.6 µM | NCI/ADR-RES 21.7 µM | OVCAR-8 16.4 µM | RPMI-8226 1.15 µM | SF-539 17.9 µM | SK-MEL-2 21.8 µM | SK-MEL-5 16.4 µM | SN12C 23.4 µM | U-251 11 µM | UACC-257 11 µM

C/C(=N\Nc1ccc([N+](=O)[O-])cc1[N+](=O)[O-])c1ccc2ccccc2n1
inactive: HT-29 74.6 µM | IGROV-1 28.1 µM | K562 > 100 µM | MDA-N > 100 µM | Malme-3M > 100 µM | NCI-H226 88.1 µM | NCI-H522 13.7 µM | NCI/ADR-RES 46 µM | OVCAR-8 47.3 µM | RPMI-8226 > 100 µM | SF-539 81.8 µM | SK-MEL-2 > 100 µM | SK-MEL-5 47.1 µM | SK-OV-3 > 100 µM | SN12C > 100 µM | U-251 33.1 µM | UACC-257 > 100 µM

CSc1nc2c(c(N(C)C)n1)C(O)n1c(nc3ccccc31)S2 (stereo not drawn)
inactive: A498 > 100 µM | HOP-62 23 µM | HT-29 > 100 µM | IGROV-1 30.2 µM | K562 > 100 µM | MDA-N > 55.1 µM | Malme-3M 28.6 µM | NCI-H226 > 100 µM | NCI-H522 12 µM | NCI/ADR-RES 37.8 µM | OVCAR-8 14.6 µM | RPMI-8226 > 100 µM | SF-539 15.2 µM | SK-MEL-2 > 100 µM | SK-MEL-5 56.2 µM | SK-OV-3 16.5 µM | SN12C > 100 µM | U-251 > 22.7 µM | UACC-257 > 100 µM

CC(C)(CO)N1CCN(C(S)=Nc2ccccc2)CC1
inactive: A498 > 100 µM | HOP-62 > 100 µM | HT-29 > 100 µM | IGROV-1 > 100 µM | K562 64.3 µM | MDA-N > 100 µM | Malme-3M > 100 µM | NCI-H226 > 100 µM | NCI-H522 > 100 µM | NCI/ADR-RES > 100 µM | OVCAR-8 > 100 µM | RPMI-8226 > 100 µM | SF-539 > 100 µM | SK-MEL-2 > 100 µM | SK-MEL-5 > 100 µM | SK-OV-3 > 100 µM | SN12C > 100 µM | U-251 > 100 µM | UACC-257 > 100 µM
